Assay results taken from US20080026996A1, “Selective Vpac2 Receptor Reptide Agonists” (ELI LILLY AND COMPANY, priority 2004, published 2008).
Values joined by “and” are separate entries in the source; they are usually repeats but may differ in a detail not shown here. Equal entries are not always repeated. Where two headings read alike, the source gives them in different places. Where a SMILES comes first, the peptide text is derived from it. Where no end group is shown, it is not given here. [ ]: non-standard residue; d: D form. The star is where a group is joined. Hexanoyl = CCCCCC(=O)*; Aib = CC(C)(N)C(=O)O

Tests used:
human VPAC2 [1] = molecular target: T1, human VPAC2 (Homo sapiens, UniProt P41587); assay: Alpha screen cAMP in vitro potency, human VPAC2 receptor; assay type: cell-based
T1 construct: expressed in transfected cells
T1 sequence (P41587 24-438): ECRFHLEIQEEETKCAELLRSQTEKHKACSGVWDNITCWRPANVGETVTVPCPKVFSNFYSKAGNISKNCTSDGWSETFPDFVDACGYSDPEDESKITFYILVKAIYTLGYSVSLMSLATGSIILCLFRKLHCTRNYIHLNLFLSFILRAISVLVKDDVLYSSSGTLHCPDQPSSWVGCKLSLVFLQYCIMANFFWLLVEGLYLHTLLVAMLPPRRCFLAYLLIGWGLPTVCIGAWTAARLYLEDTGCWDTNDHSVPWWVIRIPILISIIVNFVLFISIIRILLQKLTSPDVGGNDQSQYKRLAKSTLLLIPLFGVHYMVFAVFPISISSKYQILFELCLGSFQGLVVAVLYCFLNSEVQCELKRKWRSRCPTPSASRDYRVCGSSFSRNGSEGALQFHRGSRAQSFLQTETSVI
How it was run: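 Stimulated cAMP accumulation is read by AlphaScreen after 60 min exposure of 50,000 non-enzymatically harvested cells to compound, followed by lysis with donor beads.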

human VPAC2 [2] = molecular target: T1, human VPAC2; assay: Filter binding assay, membranes of stable VPAC2 cell line, 125I-labeled VIP tracer (Table 2)
How it was run: (§1)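 Competition binding of agonists against radiotracer on receptor membranes (2.5 μg) in 25 mM HEPES pH 7.4 with 0.5% protease-free BSA, about 40000 cpm tracer, 1 hour with shaking. Bound tracer was separated by filtration on PEI-presoaked, BSA-blocked glass-fibre filters, washed and counted by scintillation.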

Normal Wistar rats = assay: Intravenous glucose tolerance test (IVGTT); assay type: in vivo, rat; conditions: for % increase AUC: Dose = 0.5 μg/kg / % increase AUC: Dose = 10 μg/kg: IVGTT, insulin
Protocol: Intravenous glucose tolerance test (IVGTT): Normal Wistar rats are fasted overnight and are anesthetized prior to the experiment. A blood sampling catheter is inserted into the rats. The compound is given in the jugular vein. Blood samples are taken from the carotid artery. A blood sample is drawn immediately prior to the injection of glucose along with the compound. After the initial blood sample, glucose mixed with compound is injected intravenously (i.v.). A glucose challenge of 0.5 g/kg body weight is given, injecting a total of 1.5 mL vehicle with glucose and agonist per kg body weight. The peptide concentration vary to produce the desired dose in μg/kg. Blood samples are drawn at 2, 4, 6 and 10 minutes after giving glucose. The control group of animals receives the same vehicle along with glucose, but with no compound added. In some instances, a 30 minute post-glucose blood sample is drawn. Aprotinin is added to the blood sample (250 kIU/ml blood). The serum is then analyzed for glucose and insulin using standard methodologies.
The assay uses a formulated and calibrated peptide stock in PBS. Normally, this stock is a prediluted 100 μM stock. However, a more concentrated stock with approximately 1 mg agonist per mL is used. The specific concentration is always known. Variability in the maximal response is mostly due to variability in the vehicle dose.

human VPAC1 = molecular target: T2, human VPAC1 (Homo sapiens, UniProt P32241); assay: Filter binding assay, membranes of cells transiently transfected with human VPAC1, 125I-labeled VIP tracer (Table 2); design: expressed in transfected cells
T2 sequence (P32241 31-457): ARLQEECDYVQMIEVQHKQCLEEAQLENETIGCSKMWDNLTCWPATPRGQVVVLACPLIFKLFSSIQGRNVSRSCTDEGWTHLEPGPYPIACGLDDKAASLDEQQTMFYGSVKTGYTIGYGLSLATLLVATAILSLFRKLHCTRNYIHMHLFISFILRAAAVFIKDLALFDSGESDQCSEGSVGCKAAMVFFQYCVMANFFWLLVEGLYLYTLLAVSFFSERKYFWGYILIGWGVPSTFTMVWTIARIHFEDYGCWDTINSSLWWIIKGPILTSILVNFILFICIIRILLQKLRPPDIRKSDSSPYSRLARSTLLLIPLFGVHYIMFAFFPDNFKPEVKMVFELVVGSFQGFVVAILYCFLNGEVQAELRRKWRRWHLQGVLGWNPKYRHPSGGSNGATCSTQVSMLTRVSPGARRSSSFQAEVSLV
How it was run: as §1

human PAC1 = molecular target: T3, human PAC1 (Homo sapiens, UniProt P41586); assay: Filter binding assay, membranes of cells transiently transfected with human PAC1, 125I-labeled PACAP-27 tracer (Table 2); design: expressed in transfected cells
T3 sequence (P41586 21-468): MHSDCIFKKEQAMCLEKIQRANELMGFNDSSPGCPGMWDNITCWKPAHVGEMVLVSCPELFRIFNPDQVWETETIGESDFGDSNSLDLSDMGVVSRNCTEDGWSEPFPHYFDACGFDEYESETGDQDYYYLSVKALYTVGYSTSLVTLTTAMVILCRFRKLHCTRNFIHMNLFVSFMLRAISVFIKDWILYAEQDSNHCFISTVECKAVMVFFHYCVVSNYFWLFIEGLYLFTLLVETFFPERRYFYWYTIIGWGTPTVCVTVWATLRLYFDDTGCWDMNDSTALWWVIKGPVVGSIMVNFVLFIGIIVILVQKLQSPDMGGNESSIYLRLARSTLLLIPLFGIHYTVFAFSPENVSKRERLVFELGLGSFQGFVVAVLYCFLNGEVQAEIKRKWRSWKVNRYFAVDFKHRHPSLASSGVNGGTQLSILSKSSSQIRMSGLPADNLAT
How it was run: as §1

[3] = cAMP generation, single result from two analyses performed in a single run, read-out: Human VPAC2 Receptor: Alpha Screen EC50
[4] = read-out: Human VPAC2 Receptor Binding
[5] = read-out: Human VPAC1 Receptor Binding
[6] = read-out: Human PAC1 Receptor Binding

Compound | EC50 (human VPAC2 [1]; [3]) [nM] | IC50 (human VPAC2 [2]; [4]) [nM] | % increase AUC: Dose = 0.5 μg/kg (Normal Wistar rats) | % increase AUC: Dose = 10 μg/kg (Normal Wistar rats) | IC50 (human VPAC1; [5]) [nM] | IC50 (human PAC1; [6]) [nM] | EC50 (human VPAC2 [1]) [nM] | IC50 (human VPAC2 [2]) [nM] | IC50 (human VPAC1) [nM] | IC50 (human PAC1) [nM] | IVGTT ED50 (Normal Wistar rats) [µg/kg]
CCCCCC(=O)N[C@@H](Cc1c[nH]cn1)C(=O)N[C@@H](CO)C(=O)N[C@@H](CC(=O)O)C(=O)N[C@@H](C)C(=O)N[C@H](C(=O)N[C@@H](Cc1ccccc1)C(=O)N[C@H](C(=O)N[C@@H](CC(=O)O)C(=O)N[C@@H](CC(N)=O)C(=O)N[C@@H](Cc1ccc(O)cc1)C(=O)N[C@H](C(=O)N[C@@H](CCCNC(=N)N)C(=O)N[C@@H](CC(C)C)C(=O)N[C@@H](CCCNC(=N)N)C(=O)NC(C)(C)C(=O)N[C@@H](CCC(N)=O)C(=O)N[C@@H](CC(C)C)C(=O)N[C@@H](C)C(=O)N[C@@H](C)C(=O)NC(C)(C)C(=O)N[C@@H](CCCCN)C(=O)N[C@@H](Cc1ccc(O)cc1)C(=O)N[C@@H](CC(C)C)C(=O)N[C@@H](CCC(N)=O)C(=O)N[C@@H](CO)C(=O)N[C@H](C(=O)N[C@@H](CCCCN)C(=O)N[C@@H](CC(N)=O)C(=O)N[C@@H](CCCCN)C(=O)NCC(=O)NCC(=O)N1CCC[C@H]1C(=O)N[C@@H](CO)C(=O)N[C@@H](CO)C(=O)NCC(=O)N[C@@H](C)C(=O)N1CCC[C@H]1C(=O)N1CCC[C@H]1C(=O)N1CCC[C@H]1C(=O)N[C@@H](CO)C(=O)O)[C@@H](C)CC)[C@@H](C)O)[C@@H](C)O)C(C)C [Agonist P292] (Hexanoyl-HSDAVFTDNYTRLR[Aib]QLAA[Aib]KYLQSIKNKGGPSSGAPPPS-OH; C-terminus assumed) | 0.23 | 0.3 | 292% | 370% | > 3000 | > 25000 |  |  |  |  | 
H-MHSDAVFTDNYTRLRKQVAAKKYLQSIKNKRYGGPSSGAPPPS [Agonist P104] |  |  | 142% and 205% | 198% and 370% |  |  | 0.27 | 0.68 | 301 | 117 | 
Hexanoyl-HSDAVFTDNYTRLLAKLALQKYLQSIKNKRYGGPSSGAPPPS [Agonist P119] | 0.42 | 0.48 | 118% | 240% | > 3000 | > 25000 |  |  |  |  | 0.3
Hexanoyl-HSDAVFTDNYTRLRKQVAAKKYLQSIKNKRYGGPSSGAPPPS [Agonist P31] | 0.13 | 0.23 | 250% |  | 145 | 406 |  |  |  |  | 
Hexanoyl-HSDAVFTDNYTRLR[Aib]QVAAK[Aib]YLQSIKNKRYGGPSSGAPPPS [Agonist P264] | 0.1 | 0.88 | 10% | 95% | > 3000 | > 25000 |  |  |  |  | 
Hexanoyl-HSDAVFTDNYTRLR[Aib]QVAA[Aib]KYLQSIKNKRYGGPSSGAPPPS [Agonist P261] | 0.09 | 0.2 | 136% | 320% | 1000 | > 25000 |  |  |  |  | 
